These results are taken from paper PMC7986605 (Journal of Neuroscience Research, 2021).

In this data set the test system is primary hippocampal/cortical neuronal and glial cultures. The following applies: for inhibition of α-synuclein oligomer-induced trafficking deficits (in words): α-synuclein oligomer 1.0 μM, 0.5–20 µM.

Take `CCCCC1=NC2(CCCC2)C(=O)N1Cc1ccc(-c2ccccc2-c2nnn[nH]2)cc1` [irbesartan]: the “inhibition of α-synuclein oligomer-induced trafficking deficits (in words)” value (from here on “inhibition”) is “weakly inhibited”. Consider `CCCCCCNC(=O)n1cc(F)c(=O)[nH]c1=O` [carmofur], for which the “inhibition” value is “weakly inhibited”.

For the compound `CSc1ccc2c(c1)N(CCC1CCCCN1C)c1ccccc1S2` (stereo not drawn) [thioridazine], for the setting “Sprague-Dawley, rat”, the “concentrations at which the compound was toxic/cytotoxic” value is “above 1 µM”. `CC(NC(C)(C)C)C(=O)c1cccc(Cl)c1` (stereo not drawn) [bupropion]: the “inhibition” value is “weakly inhibited”. In the case of `NC(=O)N1c2ccccc2C=Cc2ccccc21` [carbamazepine], the “inhibition” value is recorded as “inhibited deficits at low concentrations”. Take `CC[C@H](C)C(=O)O[C@H]1C[C@@H](C)C=C2C=C[C@H](C)[C@H](CC[C@@H]3C[C@@H](O)CC(=O)O3)[C@H]21` [lovastatin]: the “inhibition” value is reported as “inhibited deficits at low concentrations”.
